Here are results for two compounds from paper PMC6120666 (The EMBO Journal, 2018).

What all share (assay): Drug affinity chromatography with c-ponatinib and LC-MS/MS (ponatinib interactome)
Holding throughout (type): binding

The target of test [1] is T1, proteins of U2OS cell lysate (Homo sapiens, UniProt O43707).
T1 construct: Proteins enriched by c-ponatinib from U2OS cell lysate; endogenous in cells; host or cells: U2OS cell lysate
The note with it: ACTN4, Alpha-actinin-4. An outline of the steps:
(§1)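 U2OS cell lysate in NP-40 lysis buffer (2 mg protein per pulldown) was incubated with amine-derivatized NHS beads for 2 h at 4 °C. Bound proteins were washed, eluted with 100 mM formic acid, reduced, alkylated and trypsin-digested, then identified by nano-UPLC–MS/MS on Orbitrap instruments with a 60 min gradient.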

Test [2] concerns the target T2, proteins of U2OS cell lysate (Homo sapiens, UniProt Q02218).
T2 construct: Proteins enriched by c-ponatinib from U2OS cell lysate; endogenous in cells; host or cells: U2OS cell lysate
The note with it: OGDH;OGDHL, 2-oxoglutarate dehydrogenase, mitochondrial. An outline of the steps:
as §1

Test [3] has as its target T3, proteins of U2OS cell lysate (Homo sapiens, UniProt Q9P0K7).
T3 construct: Proteins enriched by c-ponatinib from U2OS cell lysate; endogenous in cells; host or cells: U2OS cell lysate
The note with it: RAI14, Ankycorbin. An outline of the steps:
as §1

The target of test [4] is T4, proteins of U2OS cell lysate (Homo sapiens, UniProt P29317).
T4 construct: Proteins enriched by c-ponatinib from U2OS cell lysate; endogenous in cells; host or cells: U2OS cell lysate
The note with it: EPHA2, Ephrin type-A receptor 2. The gist of the method: as §1

The target of test [5] is T5, proteins of U2OS cell lysate (Homo sapiens, UniProt Q8WWI1).
T5 construct: Proteins enriched by c-ponatinib from U2OS cell lysate; endogenous in cells; host or cells: U2OS cell lysate
The note with it: LMO7, LIM domain only protein 7. The gist of the method:
as §1

Test [6] addresses T6, proteins of U2OS cell lysate (Homo sapiens, UniProt P05556).
T6 construct: Proteins enriched by c-ponatinib from U2OS cell lysate; endogenous in cells; host or cells: U2OS cell lysate
The note with it: ITGB1, Integrin beta-1. An outline of the steps:
as §1

For test [7], the target named is T7, proteins of U2OS cell lysate (Homo sapiens, UniProt Q9P2E9).
T7 construct: Proteins enriched by c-ponatinib from U2OS cell lysate; endogenous in cells; host or cells: U2OS cell lysate
The note with it: RRBP1, Ribosome-binding protein 1. The gist of the method:
as §1

Test [8] addresses T8, proteins of U2OS cell lysate (Homo sapiens, UniProt P63104).
T8 construct: Proteins enriched by c-ponatinib from U2OS cell lysate; endogenous in cells; host or cells: U2OS cell lysate
The note with it: YWHAZ, 14-3-3 protein zeta/delta. The gist of the method:
as §1

The target of test [9] is T9, proteins of U2OS cell lysate (Homo sapiens, UniProt Q9Y2V7).
T9 construct: Proteins enriched by c-ponatinib from U2OS cell lysate; endogenous in cells; host or cells: U2OS cell lysate
The note with it: COG6, Conserved oligomeric Golgi complex subunit 6. An outline of the steps: as §1

Test [10] deals with T10, proteins of U2OS cell lysate (Homo sapiens, UniProt P46060).
T10 construct: Proteins enriched by c-ponatinib from U2OS cell lysate; endogenous in cells; host or cells: U2OS cell lysate
The note with it: RANGAP1, Ran GTPase-activating protein 1. An outline of the steps: as §1

Test [11] has as its target T11, proteins of U2OS cell lysate (Homo sapiens, UniProt P09669).
T11 construct: Proteins enriched by c-ponatinib from U2OS cell lysate; endogenous in cells; host or cells: U2OS cell lysate
The note with it: COX6C, Cytochrome c oxidase subunit 6C. The gist of the method:
as §1

Test [12] has as its target T12, proteins of U2OS cell lysate (Homo sapiens, UniProt Q13163).
T12 construct: Proteins enriched by c-ponatinib from U2OS cell lysate; endogenous in cells; host or cells: U2OS cell lysate
The note with it: MAP2K5, Dual specificity mitogen-activated protein kinase kinase 5. The gist of the method:
as §1

In test [13] the target is T13, proteins of U2OS cell lysate (Homo sapiens, UniProt P26641).
T13 construct: Proteins enriched by c-ponatinib from U2OS cell lysate; endogenous in cells; host or cells: U2OS cell lysate
The note with it: EEF1G, Elongation factor 1-gamma. An outline of the steps: as §1

The target in test [14] is T14, proteins of U2OS cell lysate (Homo sapiens, UniProt P61981).
T14 construct: Proteins enriched by c-ponatinib from U2OS cell lysate; endogenous in cells; host or cells: U2OS cell lysate
The note with it: YWHAG, 14-3-3 protein gamma. An outline of the steps: as §1

Test [15] has as its target T15, proteins of U2OS cell lysate (Homo sapiens, UniProt Q9Y2D5).
T15 construct: Proteins enriched by c-ponatinib from U2OS cell lysate; endogenous in cells; host or cells: U2OS cell lysate
The note with it: AKAP2, A-kinase anchor protein 2. An outline of the steps: as §1

The target of test [16] is T16, proteins of U2OS cell lysate (Homo sapiens, UniProt O00410).
T16 construct: Proteins enriched by c-ponatinib from U2OS cell lysate; endogenous in cells; host or cells: U2OS cell lysate
The note with it: IPO5, Importin-5. An outline of the steps: as §1

The target in test [17] is T17, proteins of U2OS cell lysate (Homo sapiens, UniProt P78371).
T17 construct: Proteins enriched by c-ponatinib from U2OS cell lysate; endogenous in cells; host or cells: U2OS cell lysate
The note with it: CCT2, T-complex protein 1 subunit beta. An outline of the steps:
as §1

Test [18] concerns the target T18, proteins of U2OS cell lysate (Homo sapiens, UniProt Q69YQ0).
T18 construct: Proteins enriched by c-ponatinib from U2OS cell lysate; endogenous in cells; host or cells: U2OS cell lysate
The note with it: SPECC1L, Cytospin-A. An outline of the steps: as §1

In test [19] the target is T19, proteins of U2OS cell lysate (Homo sapiens, UniProt Q9UHX1).
T19 construct: Proteins enriched by c-ponatinib from U2OS cell lysate; endogenous in cells; host or cells: U2OS cell lysate
The note with it: captured protein PUF60, Rank 203. The gist of the method: as §1

T11 sequence (P09669 whole entry): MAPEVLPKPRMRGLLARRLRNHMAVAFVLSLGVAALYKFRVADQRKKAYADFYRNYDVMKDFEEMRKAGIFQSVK
T14 sequence (P61981 whole entry): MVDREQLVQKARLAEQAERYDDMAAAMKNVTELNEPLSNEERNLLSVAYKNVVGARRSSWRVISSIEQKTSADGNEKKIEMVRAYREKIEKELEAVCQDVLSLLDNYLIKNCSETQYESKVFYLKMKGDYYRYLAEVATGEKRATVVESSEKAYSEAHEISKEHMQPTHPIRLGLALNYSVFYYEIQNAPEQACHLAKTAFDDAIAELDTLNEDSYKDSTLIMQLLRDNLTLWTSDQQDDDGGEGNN
T8 sequence (P63104 whole entry): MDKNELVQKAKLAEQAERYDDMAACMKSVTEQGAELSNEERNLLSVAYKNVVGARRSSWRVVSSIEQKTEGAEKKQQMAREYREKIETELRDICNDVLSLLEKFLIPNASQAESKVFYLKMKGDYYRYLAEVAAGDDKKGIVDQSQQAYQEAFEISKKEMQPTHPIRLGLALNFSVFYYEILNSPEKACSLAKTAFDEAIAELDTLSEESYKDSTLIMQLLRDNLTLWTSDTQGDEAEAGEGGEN
T4 sequence (P29317 24-976): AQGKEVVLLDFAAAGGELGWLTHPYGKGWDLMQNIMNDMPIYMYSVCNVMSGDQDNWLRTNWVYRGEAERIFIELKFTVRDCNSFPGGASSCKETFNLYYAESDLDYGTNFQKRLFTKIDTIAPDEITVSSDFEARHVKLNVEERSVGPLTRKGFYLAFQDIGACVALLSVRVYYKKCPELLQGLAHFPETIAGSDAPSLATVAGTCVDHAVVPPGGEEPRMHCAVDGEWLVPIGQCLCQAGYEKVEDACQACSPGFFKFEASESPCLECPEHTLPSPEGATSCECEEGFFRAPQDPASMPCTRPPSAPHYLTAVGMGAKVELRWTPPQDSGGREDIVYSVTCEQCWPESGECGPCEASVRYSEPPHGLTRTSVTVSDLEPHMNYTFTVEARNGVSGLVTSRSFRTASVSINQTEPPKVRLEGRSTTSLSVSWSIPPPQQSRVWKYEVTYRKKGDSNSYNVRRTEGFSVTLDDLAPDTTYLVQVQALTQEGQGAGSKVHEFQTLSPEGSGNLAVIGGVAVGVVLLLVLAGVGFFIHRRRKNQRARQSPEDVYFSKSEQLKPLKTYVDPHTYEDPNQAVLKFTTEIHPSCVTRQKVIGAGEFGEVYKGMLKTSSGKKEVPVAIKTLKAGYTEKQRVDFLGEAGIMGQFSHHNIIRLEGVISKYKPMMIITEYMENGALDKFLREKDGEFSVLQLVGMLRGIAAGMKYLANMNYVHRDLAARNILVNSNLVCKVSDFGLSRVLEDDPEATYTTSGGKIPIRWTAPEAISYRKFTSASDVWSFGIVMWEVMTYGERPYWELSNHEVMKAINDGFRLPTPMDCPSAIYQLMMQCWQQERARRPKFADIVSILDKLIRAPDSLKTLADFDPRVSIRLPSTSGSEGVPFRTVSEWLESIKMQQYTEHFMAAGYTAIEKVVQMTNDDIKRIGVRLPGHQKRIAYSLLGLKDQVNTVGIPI
T10 sequence (P46060 whole entry): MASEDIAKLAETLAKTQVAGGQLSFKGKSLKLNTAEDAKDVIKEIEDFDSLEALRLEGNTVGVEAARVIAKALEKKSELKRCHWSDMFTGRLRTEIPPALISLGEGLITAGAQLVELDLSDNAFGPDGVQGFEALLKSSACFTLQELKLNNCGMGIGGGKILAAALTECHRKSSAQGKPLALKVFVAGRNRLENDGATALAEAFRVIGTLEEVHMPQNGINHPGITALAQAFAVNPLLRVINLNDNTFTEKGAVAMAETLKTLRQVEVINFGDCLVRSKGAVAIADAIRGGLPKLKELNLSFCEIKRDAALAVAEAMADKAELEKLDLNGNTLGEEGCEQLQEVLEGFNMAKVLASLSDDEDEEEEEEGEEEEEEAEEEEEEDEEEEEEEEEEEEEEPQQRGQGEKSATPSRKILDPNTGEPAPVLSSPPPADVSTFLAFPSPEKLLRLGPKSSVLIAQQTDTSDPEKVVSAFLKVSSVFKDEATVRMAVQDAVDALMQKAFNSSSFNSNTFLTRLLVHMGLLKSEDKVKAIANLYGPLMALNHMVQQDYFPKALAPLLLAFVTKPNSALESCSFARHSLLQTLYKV
T15 sequence (Q9Y2D5 whole entry): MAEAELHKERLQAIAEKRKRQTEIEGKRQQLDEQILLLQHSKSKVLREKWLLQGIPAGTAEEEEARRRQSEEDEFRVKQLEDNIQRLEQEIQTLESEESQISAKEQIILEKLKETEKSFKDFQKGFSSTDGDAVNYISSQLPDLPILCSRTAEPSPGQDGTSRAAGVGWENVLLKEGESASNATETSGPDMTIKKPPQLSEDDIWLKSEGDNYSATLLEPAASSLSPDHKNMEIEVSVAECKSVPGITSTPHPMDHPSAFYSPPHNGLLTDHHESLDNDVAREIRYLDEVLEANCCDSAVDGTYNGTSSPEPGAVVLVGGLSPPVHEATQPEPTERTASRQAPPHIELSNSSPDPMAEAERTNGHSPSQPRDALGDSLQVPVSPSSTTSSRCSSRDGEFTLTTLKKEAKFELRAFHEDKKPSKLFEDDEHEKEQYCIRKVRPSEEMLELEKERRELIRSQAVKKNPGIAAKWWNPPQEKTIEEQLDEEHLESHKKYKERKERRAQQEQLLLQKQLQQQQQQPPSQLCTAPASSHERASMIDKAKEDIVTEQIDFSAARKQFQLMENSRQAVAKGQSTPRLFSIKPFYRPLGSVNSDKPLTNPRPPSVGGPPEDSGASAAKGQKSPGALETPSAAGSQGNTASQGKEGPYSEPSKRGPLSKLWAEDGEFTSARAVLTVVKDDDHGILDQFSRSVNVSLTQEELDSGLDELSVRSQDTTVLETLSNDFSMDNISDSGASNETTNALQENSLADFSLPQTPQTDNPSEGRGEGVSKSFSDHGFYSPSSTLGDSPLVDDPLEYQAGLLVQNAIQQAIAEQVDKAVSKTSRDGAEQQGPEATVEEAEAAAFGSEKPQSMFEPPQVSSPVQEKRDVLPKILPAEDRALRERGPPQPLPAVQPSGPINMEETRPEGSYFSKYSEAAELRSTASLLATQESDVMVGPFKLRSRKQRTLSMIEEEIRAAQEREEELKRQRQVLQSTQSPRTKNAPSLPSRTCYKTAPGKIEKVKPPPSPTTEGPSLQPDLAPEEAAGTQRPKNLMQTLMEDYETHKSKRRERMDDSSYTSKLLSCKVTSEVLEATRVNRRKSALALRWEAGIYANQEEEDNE
T18 sequence (Q69YQ0 whole entry): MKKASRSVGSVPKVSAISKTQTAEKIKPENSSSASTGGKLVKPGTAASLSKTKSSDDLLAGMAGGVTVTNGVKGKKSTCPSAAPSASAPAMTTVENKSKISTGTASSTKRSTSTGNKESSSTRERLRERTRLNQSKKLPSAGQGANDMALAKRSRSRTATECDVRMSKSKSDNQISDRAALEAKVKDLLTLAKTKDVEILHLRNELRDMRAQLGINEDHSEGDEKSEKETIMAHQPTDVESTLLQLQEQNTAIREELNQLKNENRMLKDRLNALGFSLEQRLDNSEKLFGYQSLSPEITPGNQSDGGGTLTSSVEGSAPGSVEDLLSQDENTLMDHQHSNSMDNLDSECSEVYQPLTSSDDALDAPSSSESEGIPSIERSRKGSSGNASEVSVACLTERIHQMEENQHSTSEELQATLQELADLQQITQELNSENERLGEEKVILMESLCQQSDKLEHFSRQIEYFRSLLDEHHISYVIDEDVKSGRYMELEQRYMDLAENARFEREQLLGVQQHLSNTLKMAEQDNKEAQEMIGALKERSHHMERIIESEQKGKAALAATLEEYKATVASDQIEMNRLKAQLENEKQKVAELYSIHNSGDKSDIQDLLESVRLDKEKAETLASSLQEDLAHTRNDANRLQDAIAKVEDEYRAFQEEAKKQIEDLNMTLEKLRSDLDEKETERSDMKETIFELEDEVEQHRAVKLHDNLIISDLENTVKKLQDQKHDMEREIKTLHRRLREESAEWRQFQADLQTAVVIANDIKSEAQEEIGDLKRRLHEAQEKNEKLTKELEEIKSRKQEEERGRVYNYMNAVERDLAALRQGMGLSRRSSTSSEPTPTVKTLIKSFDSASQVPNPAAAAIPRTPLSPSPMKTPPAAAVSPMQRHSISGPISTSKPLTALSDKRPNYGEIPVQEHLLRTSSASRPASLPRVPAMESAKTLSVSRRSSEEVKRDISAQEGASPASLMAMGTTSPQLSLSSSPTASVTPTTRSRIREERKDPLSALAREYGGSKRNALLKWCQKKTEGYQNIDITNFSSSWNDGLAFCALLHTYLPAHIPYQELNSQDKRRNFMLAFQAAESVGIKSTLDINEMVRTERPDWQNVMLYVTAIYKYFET
T19 sequence (Q9UHX1 whole entry): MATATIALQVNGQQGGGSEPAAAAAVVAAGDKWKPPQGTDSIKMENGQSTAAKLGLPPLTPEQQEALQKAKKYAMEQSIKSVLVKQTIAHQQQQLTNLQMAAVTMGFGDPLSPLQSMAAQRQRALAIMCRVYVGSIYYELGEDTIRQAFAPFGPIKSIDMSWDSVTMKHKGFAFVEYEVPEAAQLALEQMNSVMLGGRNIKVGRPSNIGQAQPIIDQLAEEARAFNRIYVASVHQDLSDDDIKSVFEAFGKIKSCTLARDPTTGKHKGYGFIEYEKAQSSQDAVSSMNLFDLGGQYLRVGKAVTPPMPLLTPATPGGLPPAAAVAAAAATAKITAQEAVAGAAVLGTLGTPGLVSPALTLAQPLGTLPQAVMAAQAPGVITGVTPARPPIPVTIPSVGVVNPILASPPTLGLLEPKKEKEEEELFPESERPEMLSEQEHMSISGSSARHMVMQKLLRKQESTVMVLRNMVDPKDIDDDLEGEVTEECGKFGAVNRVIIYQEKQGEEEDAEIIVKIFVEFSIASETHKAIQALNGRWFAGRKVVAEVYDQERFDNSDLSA

With `Cc1ccc(C(=O)Nc2ccc(CN3CCN(C)CC3)c(C(F)(F)F)c2)cc1C#Cc1cnc2cccnn12` [PON], the “Average LFQ PON_WT” value in test [1] worked out at 19.9578; in [2], 22.0277; in test [3] it was 19.7116; in [4] it was 29.5288; in test [5], 20.1594; in test [6], 20.3187. The “Average LFQ PON_WT” value is 20.1458 in [7]; 24.9214 in test [8]; 20.9766 in test [9]; 21.315 in test [10]; 20.8234 in test [11]; 19.6379 in [12]. The “Average LFQ PON_WT” value in test [13] came out at 25.0677; in test [14] it was 23.8341; in [15], 19.1683; in test [16] it was 21.1425; in test [17] it was 24.048; in test [18] it was 20.8707.
As for `Cc1ccc(C(=O)Nc2ccc(CN3CCN(CCCN)CC3)c(C(F)(F)F)c2)cc1C#Cc1cnc2cccnn12` [c-ponatinib, reference compound], the “Average LFQ intensity” value in test [19] is 21.804.
